The values below come from ChEMBL document CHEMBL1144081, “Sesquiterpene lactones from neurolaena oaxacana” (1999).

≈ marks a conversion by molar mass, not a printed value.

One test concerns Entamoeba histolytica. The experiment in a line: […] activity against Entamoeba histolytica. The format is functional.
Another test concerns Giardia intestinalis. The experiment in a line: Antigiardial activity against Giardia intestinalis. It counts as functional. The following applies: Giardia duodenalis.

On to `CC[C@H]1CN2CCc3cc(OC)c(OC)cc3[C@@H]2C[C@@H]1C[C@H]1NCCc2cc(OC)c(OC)cc21` [EMETINE], for which 2.9 µM (≈ 1.39 µg/mL) was the least that counted as inhibitory in the test with Entamoeba histolytica (MIC).

As for `Cc1ncc([N+](=O)[O-])n1CCO` [METRONIDAZOLE], in the test with Giardia intestinalis, 1.17 µM (≈ 0.2 µg/mL) was the least that counted as inhibitory (MIC).

As for `C=C1C(=O)O[C@@H]2C[C@@H](C)/C=C\C(=O)[C@@](C)(O)[C@H](OC(C)=O)[C@@H](OC(=O)CC(C)C)[C@@H]12` [NEUROLENIN B], the minimal inhibitory concentration (MIC) – broadly, the lowest concentration found to suppress growth – turned out to be 7.6 µM (≈ 3.21 µg/mL) in the test with Entamoeba histolytica and 3.8 µM (≈ 1.61 µg/mL) against Giardia intestinalis.
